Data on 30 compounds can be found in ChEMBL document CHEMBL1131518, “Methionine analogues as inhibitors of methionyl-tRNA synthetase” (1998).

Assay [1] concerns the target Methionine--tRNA ligase (Escherichia coli K-12) (UniProt P00959). In words: Ability to inhibit Escherichia coli methionyl-tRNA synthetase was determined at a concentration of 270 uM.
A further assay deals with Bacillus subtilis. In words: Antimicrobial activity against Bacillus subtilis ATCC 6633 was determined. Format: functional.
A further assay relates to Citrobacter freundii. The assay can be described thus: Antimicrobial activity against Citrobacter freundii 8090 was determined. In kind it is functional.
In another assay the test system is Escherichia coli. The assay can be described thus: Antimicrobial activity against Escherichia coli JM109 was determined. In kind it is functional.
The next assay relates to Enterococcus faecalis. In words: Antimicrobial activity against Enterococcus faecalis 29212 was determined. Format: functional.
Another assay has as its system Klebsiella pneumoniae. In words: Antimicrobial activity against Klebsiella pneumoniae 2011E was determined. In kind it is functional.
The test system of a further assay is Proteus vulgaris. In words: Antimicrobial activity against Proteus vulgaris 6059 was determined. In kind it is functional.
The subject of the next assay is Pseudomonas aeruginosa. In words: Antimicrobial activity against Pseudomonas aeruginosa 1912E was determined. In kind it is functional.
In the next assay the test system is Salmonella typhimurium. The assay can be described thus: Antimicrobial activity against Salmonella Typhimurium 14028 was determined. Format: functional, Salmonella enterica subsp. enterica serovar Typhimurium. The note with it: Salmonella enterica.
Another assay relates to Staphylococcus aureus. The assay can be described thus: Antimicrobial activity against Staphylococcus aureus 1538p was determined. Format: functional.
Another assay deals with Serratia marcescens. The assay can be described thus: Antimicrobial activity against Serratia marcescens 1826E was determined. In kind it is functional.

Values after ≈ are worked out from the molar mass of the structure shown. Where only a bound is given, the exact number is not on record here.

Methionine--tRNA ligase (Escherichia coli K-12), sequence (P00959 2-677 limits assumed): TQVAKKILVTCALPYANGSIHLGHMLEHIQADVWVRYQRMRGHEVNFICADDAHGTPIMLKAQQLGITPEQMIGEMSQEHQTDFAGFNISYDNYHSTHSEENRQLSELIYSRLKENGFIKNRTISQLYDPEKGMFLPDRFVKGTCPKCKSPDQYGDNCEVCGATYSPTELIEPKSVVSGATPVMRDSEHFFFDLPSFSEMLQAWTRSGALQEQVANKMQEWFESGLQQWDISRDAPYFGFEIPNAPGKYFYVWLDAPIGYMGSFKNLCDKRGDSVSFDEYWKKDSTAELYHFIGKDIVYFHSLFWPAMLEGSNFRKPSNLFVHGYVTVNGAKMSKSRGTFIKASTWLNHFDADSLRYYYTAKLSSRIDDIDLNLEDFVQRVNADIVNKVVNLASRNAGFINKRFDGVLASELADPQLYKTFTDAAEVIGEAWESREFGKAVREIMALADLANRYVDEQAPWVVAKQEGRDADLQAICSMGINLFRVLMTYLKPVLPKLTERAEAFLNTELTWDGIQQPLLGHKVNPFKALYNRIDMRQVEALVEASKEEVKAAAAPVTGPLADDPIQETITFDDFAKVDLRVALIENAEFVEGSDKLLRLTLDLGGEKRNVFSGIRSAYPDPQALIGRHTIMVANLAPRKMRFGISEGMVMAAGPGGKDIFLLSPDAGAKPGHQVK

Regarding `CSCC[C@H](NC(=O)OC(C)(C)C)C(=O)O`, the inhibition in assay [1] was found to be 11.3%.
Same read-out and setting: the figure for `CSCCC(=O)Cl` is 14%.
In assay [1], `CSCCN1C(=O)c2ccccc2S1(=O)=O` had an inhibition of 16.3%.
Consider `CSCCC(N)C(=O)Nc1ccc2ccccc2c1` (stereo not drawn), for which the inhibition in assay [1] stood at 22.3%.
In assay [1], `CSCCCO` showed an inhibition of 0%.
Consider `CSCC[C@H](N)C(=O)Nc1ccc([N+](=O)[O-])cc1`, for which the inhibition in assay [1] is 33.5%.
On the same count and under the same terms, the figure for `CSCCc1cc(O)[nH]n1` is 1.8%; for `CSCC[C@H](NC(=O)OC(C)(C)C)C(=O)NO` it is 11.4%.
In assay [1], `CSCC[C@H](N)C(=O)NCO` yielded an inhibition of 23.1%.
In the case of `C[S+]([O-])CC[C@H](N)C(=O)NO` (stereo partly drawn), the inhibition in [1] was 8.5%.
`CSCCCCO`: in [1], the inhibition amounted to 0%.
`CSCCC#N` registered an inhibition in [1] of 7.8%.
In assay [1], `CSCC[C@H](N)C(N)=O` gave an inhibition of 17.8%.
`CSCCc1n[nH]cc1C(=O)O` showed an inhibition in assay [1] of 8.3%.
As for `CSCCC(N)C(=O)NO.O=C(O)C(F)(F)F` (stereo not drawn), the MIC with Bacillus subtilis, in the assay on Citrobacter freundii, with Escherichia coli, against Enterococcus faecalis, in the assay on Klebsiella pneumoniae and in the assay with Proteus vulgaris was greater than 128 µg/mL in each case. Besides, the minimal inhibitory concentration (MIC) against Pseudomonas aeruginosa, against Salmonella typhimurium, in the assay with Staphylococcus aureus and against Serratia marcescens was greater than 128 µg/mL throughout.
Compound `CS(=O)(=O)CC[C@H](N)C(=O)NO` registered an inhibition in [1] of 0%.
With `CSCC[C@H](NC(=O)OC(C)(C)C)C(=O)NOC(=O)OC(C)(C)C`, the inhibition in assay [1] worked out at 0%.
Turning to `CSCCC(N)C(=O)NO` (stereo not drawn), the minimum inhibitory concentration (MIC) against Bacillus subtilis is greater than 128 µg/mL; in the assay with Citrobacter freundii, 8 µg/mL (≈ 48.7 µM); in the assay on Escherichia coli it was 2 µg/mL (≈ 12.2 µM); against Enterococcus faecalis, greater than 128 µg/mL; against Klebsiella pneumoniae, greater than 128 µg/mL; against Proteus vulgaris, 4 µg/mL (≈ 24.4 µM). Further, the MIC against Pseudomonas aeruginosa, against Salmonella typhimurium, with Staphylococcus aureus and in the assay on Serratia marcescens was greater than 128 µg/mL in each case.
`CSCC[C@H](N)C(=O)Nc1cccc([N+](=O)[O-])c1` registered an inhibition in assay [1] of 0%.
In the case of `CSCCc1nn[nH]n1`, in assay [1], the inhibition is 16.2%.
Consider `CSCCC(=O)O`, for which, in [1], the inhibition came to 5.9%.
With `COC(=O)CCSC`, in assay [1], the inhibition was 3.8%.
On the same count and under the same terms, the figure for `CSCCC=O` is 4.7%; for `COC(=O)[C@@H](N)CCSC` it is 20.4%.
Consider `CSCC[C@H](N)C(=O)NO.O=C(O)C(F)(F)F`, for which the MIC was greater than 128 µg/mL with Bacillus subtilis; 8 µg/mL against Citrobacter freundii; 1 µg/mL against Escherichia coli; greater than 128 µg/mL against Enterococcus faecalis; greater than 128 µg/mL against Klebsiella pneumoniae; 2 µg/mL in the assay with Proteus vulgaris. The MIC with Pseudomonas aeruginosa, in the assay on Salmonella typhimurium, in the assay with Staphylococcus aureus and in the assay with Serratia marcescens was greater than 128 µg/mL each time. For the same compound, the inhibition in assay [1] amounted to 81.5%.
Compound `CCOC(=O)c1c[nH]nc1CCSC` gave an inhibition in assay [1] of 0%.
In [1], `CSCC[C@H](N)C(=O)NOC(C)(C)C` had an inhibition of 56.2%.
The same measure, in the same setting: for `COC(=O)CC(=O)CCSC` the value was 0.4%; for `CSCCO`, 3.2%; for `CSCC[C@H](N)C(=O)C(C)C`, 0%.
